Measurements as given in patent EP0326134A1, “4-Amino-2,3-disubstituted-6,7-dihydro-5H-1-pyridine derivatives, process for their preparation and medicaments containing them” (NAUCHNO-ISSLEDOVATELSKY INSTITUT TEKHNOLOGII I BEZOPASNOSTI …, priority 1988, dated 1989).
Counter-ions that a name gives are not always drawn. Like-named read-outs stand apart in the source and are kept apart here.

Columns and labels:
[1] = Acute toxicity, single intraperitoneal injection, probit analysis (LD50); format: in vivo, Mäusen; conditions: mice, i.p.
Excerpt: Ihre akute Toxizität wurde an Mäusen (einmalige intraperitoneale Injektion) nach der Methode der Probit-Analyse nach Zichtfield, Wilcoxon, t949 untersucht. In Tabelle 2 sind die Parameter der akuten Toxizität (LDso) angegeben, die eine mäßige Toxizität der erfindungsgemäßen Verbindungen belegen.

[2] = system: Na -Durchlässigkeit der Membrane des Ranvier-Schnürringes; assay: Na+ permeability of the node of Ranvier membrane, voltage clamp; design: species or system Frosches; conditions: concentration giving 50 % block of ion permeability
Excerpt: (§1) Untersucht wurden die Wirkmechanismen der erfindungsgemäßen Verbindungen: • 1. Die Wirkung auf Acetylcholinesterase menschlicher Erythrozyten auf spektrofotometrischem Wege. • 2. Die Wirkung auf die K - und Na -Durchlässigkeit der Membrane des Ranvier-Schnürringes (s. Fox T.M. et al. "Modification of ionic membrane currrents of Ranvier nodes by UV-radiation under voltage clamp conditions", Experientia, 27, 1289-1290 /1971/ und Arhom P. et al. "Local anesthetics: effects on permeability properties of nodal membrane in myelynated nerve fibres from xenopus". Acta physiol. Scand. 91, 11-21 /1974/) der Nervenfasern des Hüftnervs des Frosches unter Anwendung der Methode der Messung der Membranspannung (Voltage-clampmethode) (s. Derksen H.E. "Axon membrane voltage fluctuations", Acta Physiol., Pharmacol Neer, 13, 373-466 /1965/).
(§2) Alle erfindungsgemäßen Verbindungen sind Blocker für die K^+-Durchlässigkeit der Membrane analog dem Amyridin. Die Salze der bicyclischen Basen blockieren jedoch stärker die Na -Durchlässigkeit der Membrane, was sich mit ihren sedativen und analgetischen Eigenschaften in Verbindung bringen läßt.

M2-Cholinrezeptoren = biological target: T1, M2-Cholinrezeptoren (Oryctolagus cuniculus, UniProt G1TBX1); assay: Radioligand displacement of 3H-Chinuklidin in heart; format: binding, Kaninchen; conditions: for inhibition at 10 µM / inhibition at 1 µM: read-out: Verdrängung des 3H-Chinuklidins im Kaninchenherzen (M2-Cholinrezeptoren)
T1 construct: im Kaninchen-herzen (M2-Cholinre-zeptoren); from tissue; host or cells: rabbit heart
T1 sequence (G1TBX1 1-520): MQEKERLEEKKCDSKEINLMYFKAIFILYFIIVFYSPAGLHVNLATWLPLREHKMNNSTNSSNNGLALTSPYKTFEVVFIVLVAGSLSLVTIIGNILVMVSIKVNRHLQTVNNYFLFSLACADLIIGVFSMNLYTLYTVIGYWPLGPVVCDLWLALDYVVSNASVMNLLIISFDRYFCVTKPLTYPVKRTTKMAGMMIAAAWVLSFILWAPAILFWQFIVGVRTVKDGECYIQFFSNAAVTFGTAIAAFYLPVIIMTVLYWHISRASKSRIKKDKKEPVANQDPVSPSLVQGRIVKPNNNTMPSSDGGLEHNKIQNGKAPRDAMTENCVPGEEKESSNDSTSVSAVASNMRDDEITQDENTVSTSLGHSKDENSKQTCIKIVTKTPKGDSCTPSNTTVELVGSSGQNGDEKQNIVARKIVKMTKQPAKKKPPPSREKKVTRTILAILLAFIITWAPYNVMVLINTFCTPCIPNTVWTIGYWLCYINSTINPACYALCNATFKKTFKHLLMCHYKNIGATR
Excerpt: (§3) Dies beweisen spezielle Radioligandenuntersuchungen an einzelnen erfindungsgemäßen Verbindungen (s. Tabelle 6).

[3] = system: Nerven-Muskel-Präparat von Mäusen (n.peroneus-m.extensor digitorum longus); assay: Neuromuscular transmission in isolated nerve-muscle preparation (EPP, minEPP); conditions: for Stimulierung der Nerven-Muskelübertragung, in % der Amplitude: EPP: EPP = Endplattenpotential
Method in brief: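 Mouse peroneal nerve–extensor digitorum longus preparation, isolated and perfused with O2/CO2-gassed Lilly solution. EPPs and spontaneous minEPPs were recorded by magnetograph, then analysed by computer for frequency, amplitude and duration.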

[4] = system: K -Durchlässigkeit der Membrane des Ranvier-Schnürringes; assay: K+ permeability of the node of Ranvier membrane, voltage clamp; design: species or system Frosches; conditions: concentration giving 50 % block of ion permeability
Excerpt: as §1, §2

Uterus der Ratte = assay: Contractile activity of smooth muscle: rat uterus; conditions: n = 9; for activity at 100 µM / activity at 10 µM: Rattus norvegicus; for Serotonin 1.10^-6 (Mol): Dauer, Min.: Uterus der Ratte; for Acetylcholin 1.10^-6 (Mol): Dauer, Min.: Uterus der Ratte (as head prints)
Excerpt: (§4) In Versuchen an glattmpskulären Organen (Uterus, Samenleiter der Ratte und Krummdarm des Meerschweinchens) wurden die Wirkung der erfindungsgemäßen Verbindungen auf die kontraktile Aktivität der glatten Muskeln und ihre Reaktionen auf den Einfluß von Acetylcholin, Serotonin, Adrenalin und KCI als Agonisten untersucht. Mit Hilfe eines Schreibers wurden die Amplitude und die Dauer der Kontraktion der glatten Muskeln unter Verwendung eines Geräts vom Typ Mechanstron-untersucht.

Samenleiter der Ratte = assay: Contractile activity of smooth muscle: rat vas deferens; conditions: n = 9; for Adrenalin 1.10^-6: Dauer, Min.: Samenleiter der Ratte
Excerpt: as §4

[5] = Side effects and CNS/behaviour: tremor (TD50), sedative and m-cholinomimetic effects; format: in vivo; conditions: for TD50: in vivo
Excerpt: Von Interesse ist der Einfluß der erfindungsgemäßen Verbindungen auf das ZNS und das Verhalten der Tiere.

α2-Adrenorezeptoren = assay: Radioligand displacement of 3H-clonidine in cerebral cortex; format: binding, Kaninchens; conditions: for α2-adrenoblockierende Wirkung: in words, from radioligand studies
Excerpt: as §3

M-cholinrezeptoren = assay: Radioligand displacement of 3H-Propyl-2-aminobenzylat in brain; format: binding, Kaninchens
Excerpt: as §3

Zahl der Krämpfe = assay: Writhing test (intraperitoneal acetic acid); format: in vivo, Mäusen; conditions: male mice
Method in brief: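 Male mice received intraperitoneal acetic acid to induce writhing. Analgesic effect expressed as percentage reduction in the number of writhes.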

Wirkung von Hexenal = assay: Influence on the effect of Hexenal; format: in vivo, Mäusen; conditions: mice
[6] = system: Calciumchlorid-Arrhythmie-Modells; assay: Calcium chloride arrhythmia model (250 mg/kg): ventricular fibrillation, survival; format: in vivo, Ratten; conditions: rats, calcium chloride 250 mg/kg
Method in brief: (§5)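 Rats were given calcium chloride by injection at 250 mg/kg, with ventricular fibrillation and survival time recorded. Isolated rabbit right atrium preparations were studied with microelectrodes for AP duration, refractory period (R), maximal inhibition (e) and the arrhythmia-susceptibility parameter e/R.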

Orientierungsaktivität = assay: Influence on orientation activity; format: in vivo, Mäusen; conditions: mice
Excerpt: Von Interesse ist der Einfluß der erfindungsgemäßen Verbindungen auf das ZNS und das Verhalten der Tiere. Alle Verbindungen zeigen eine Kombination von stimulierenden und sedativen Eigenschaften und bei höheren Dosen auch eine m-cholinomimetische Wirkung, wobei Tremor, Speichelfluß und Diarrhoe ausgelöst werden.

[7] = system: isolierten Präparaten des rechten Vorhofs von Kaninchen; assay: Antiarrhythmic effect on isolated right atrium preparations (microelectrodes: AP duration, refractory period R, e/R); conditions: isolated right atrium of rabbit, microelectrodes
Method in brief: as §5

[8] = biological target: T2, Acetylcholinesterase menschlicher Erythrozyten (Homo sapiens, UniProt P22303); assay: Acetylcholinesterase inhibition, spectrophotometric; format: biochemical; conditions: Acetylcholinesteraseinhibierung bei menschlichen Erythrozyten IK, (Mol), human erythrocyte enzyme
T2 construct: Acetylcholin-esteraseinhi-bierung bei menschlichen Erythrozyten; from tissue; host or cells: human erythrocytes
Excerpt: Untersucht wurden die Wirkmechanismen der erfindungsgemäßen Verbindungen: • 1. Die Wirkung auf Acetylcholinesterase menschlicher Erythrozyten auf spektrofotometrischem Wege. • 2.

[9] = system: durch Skopolamin hervorgerufene Amnesie; assay: Dark avoidance assay (passive avoidance), scopolamine-induced amnesia; format: in vivo, Mäusen; conditions: mice, compound s.c. 5 min before learning, Skopolamin i.p. 30 min before
[10] = mouse, in vivo, ip, read-out: LD50
[11] = toxic dose causing tremor in 50 % of the animals
[12] = Konzentration 1.10^-5 Mol, 10 µM
[13] = Konzentration 1.10^-6 Mol, 1 µM

T2 sequence (P22303 other isoform, or with tags, fused parts or gaps): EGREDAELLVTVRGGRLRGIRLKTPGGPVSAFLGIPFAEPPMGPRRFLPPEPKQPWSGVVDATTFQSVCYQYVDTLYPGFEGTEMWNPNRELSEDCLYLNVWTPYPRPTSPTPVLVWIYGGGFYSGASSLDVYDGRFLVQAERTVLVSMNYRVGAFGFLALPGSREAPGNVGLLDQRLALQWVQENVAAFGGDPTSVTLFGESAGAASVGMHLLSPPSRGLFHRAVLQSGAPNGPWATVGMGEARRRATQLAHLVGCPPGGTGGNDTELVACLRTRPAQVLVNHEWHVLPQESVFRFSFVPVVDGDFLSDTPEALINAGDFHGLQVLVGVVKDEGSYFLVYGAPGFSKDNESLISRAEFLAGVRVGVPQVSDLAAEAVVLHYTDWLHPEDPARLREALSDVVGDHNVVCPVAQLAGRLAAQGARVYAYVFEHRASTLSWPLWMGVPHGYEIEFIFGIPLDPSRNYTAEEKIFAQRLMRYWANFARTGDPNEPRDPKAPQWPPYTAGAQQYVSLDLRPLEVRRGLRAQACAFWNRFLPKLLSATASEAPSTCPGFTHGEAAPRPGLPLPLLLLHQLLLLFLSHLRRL

SMILES	LD50 [1, 10] [mg/kg]	inhibition at 10 µM (M2-Cholinrezeptoren; Konzentration 1.10^-5 Mol) [%]	inhibition at 1 µM (M2-Cholinrezeptoren; Konzentration 1.10^-6 Mol) [%]	Stimulierung der Nerven-Muskelübertragung, in % der Amplitude: EPP [3] [%]	Stimulierung der Nerven-Muskelübertragung, in % der Amplitude: minEPP [3] [%]	Serotonin 1.10^-6 (Mol): Dauer, Min. (Uterus der Ratte; Konzentration 1.10^-5 Mol) [Min.]	Adrenalin 1.10^-6: Dauer, Min. (Samenleiter der Ratte; Konzentration 1.10^-4 Mol) [Min.]	Adrenalin 1.10^-6: Dauer, Min. (Samenleiter der Ratte; Konzentration 1.10^-5 Mol) [Min.]	TD50 [5, 11] [mg/kg]	Verdrängung des 3H-Clonidins in der Hirnrinde des Kaninchens (α2-Adrenorezeptoren) (α2-Adrenorezeptoren; [12])	Verdrängung des 3H-Clonidins in der Hirnrinde des Kaninchens (α2-Adrenorezeptoren) (α2-Adrenorezeptoren; [13])	α2-adrenoblockierende Wirkung (α2-Adrenorezeptoren)	Verdrängung des 3H-Propyl-2-aminobenzylats im Gehirn des Kaninchens (M-cholinrezeptoren) (M-cholinrezeptoren; [12])	Verdrängung des 3H-Propyl-2-aminobenzylats im Gehirn des Kaninchens (M-cholinrezeptoren) (M-cholinrezeptoren; [13])	Einfluß auf das Gedächtnis: Zahl der Tiere in %, bei denen die Skopolaminwirkung aufgehoben wurde [9] [%]	further results
Nc1c2c(nc3ccccc13)CCCC2 [Verbindung 41, 2,3,4,5-Tetrahydro-9-amino-acridin, reference compound]	30	50	10	22	40	5±0.5	2±0.2	2±0.06	10	27	0	in demselben Maße	0	0		IC50 ([2]; read-out: Blockierung der Na^+-Durchlässigkeit der Membrane Ic50 (Mol), node of Ranvier, frog sciatic nerve fibres, voltage clamp): 15 µM; IC50 ([4]; read-out: Blockierung der K^+-Durchlässigkeit der Membrane Ic50 (Mol), node of Ranvier, frog sciatic nerve fibres, voltage clamp): 800 µM; activity at 100 µM (Uterus der Ratte; read-out: Acetylcholin 1.10^-6 (Mol): Amplidude, % bezogen auf d. Kontrolle, Uterus der Ratte (as head prints), Konzentration 1.10^-4 Mol, ditto mark -"- repeats unverändert): 26%; activity at 10 µM (Uterus der Ratte; read-out: Acetylcholin 1.10^-6 (Mol): Amplidude, % bezogen auf d. Kontrolle, Uterus der Ratte (as head prints), Konzentration 1.10^-5 Mol, ditto mark -"- repeats unverändert): 100%; activity at 100 µM (Uterus der Ratte; read-out: Serotonin 1.10^-6 (Mol): Amplitude, % bezogen auf die Kontrolle, Uterus der Ratte, Konzentration 1.10^-4 Mol): 0%; activity at 10 µM (Uterus der Ratte; read-out: Serotonin 1.10^-6 (Mol): Amplitude, % bezogen auf die Kontrolle, Uterus der Ratte, Konzentration 1.10^-5 Mol): 164%; activity at 100 µM (Samenleiter der Ratte; Rattus norvegicus, read-out: Adrenalin 1.10^-6: Amplitude, % bezogen auf d.Kontrolle, Samenleiter der Ratte, Konzentration 1.10^-4 Mol): 35%; activity at 10 µM (Samenleiter der Ratte; Rattus norvegicus, read-out: Adrenalin 1.10^-6: Amplitude, % bezogen auf d.Kontrolle, Samenleiter der Ratte, Konzentration 1.10^-5 Mol): 120%
Cc1nc2c(c(N)c1C)CCC2 [Verbindung 1, 4-Amino-2,3-dimethyl-6,7-dihydro-5H-1-pyrindinhydrochlorid]		0	0	50	90					26	0	α2-adrenoblockierende Wirkung zeigt	28	0	70	LD50 [1]: 15 mg/kg; Analgetische Wirkung: Abnahme d. Zahl der "Krämpfe" bei Mäusen, in % (Zahl der Krämpfe): 60%; Änderung der Dauer der Seitenlage, in %: Hexenal 60 mg/kg (Wirkung von Hexenal): +28%; Antiarrhythmische Wirkung: Verlängerung d. Lebensdauer von Ratten an Hand des CaCl2-Arrhythmie-Modells, in % [6]: 150%; Änderung der Orientierungsaktivität, in % (Orientierungsaktivität): -25%; Antiarrhythmische Wirkung: Verlängerung d. Refraktärzeit (R), in % [7]: 120%; Verhältnis TD50 zu ED50 ([5]; ED50 = dose blocking the effect of Skopolamin in 50 % of the animals (passive avoidance, mice)): 15; TD50 (Tremor) [5, 11]: 6 mg/kg; Ki [8]: 1.07 µM
Nc1c2c(nc3c1CCC3)CCCC2 [Verbindung 40, 9-Amino-2,3,5,6,7,8-hexahydro-1 H-cyclopenta(b)chinolinhydrochloridhydrat, reference compound]	44			55	100	25±0.4	28±0.8	25±0.6	23.2	10	0	fehlt jedoch praktisch	10	0	60	IC50 ([2]; node of Ranvier, frog sciatic nerve fibres, voltage clamp, read-out: Blockierung der Na^+-Durchlässigkeit der Membrane Ic50 (Mol)): 200 µM; Verdrängung des 3H-Chinuklidins im Kaninchenherzen (M2-Cholinrezeptoren) (M2-Cholinrezeptoren; [12]): 0; Verdrängung des 3H-Chinuklidins im Kaninchenherzen (M2-Cholinrezeptoren) (M2-Cholinrezeptoren; [13]): 0; IC50 ([4]; node of Ranvier, frog sciatic nerve fibres, voltage clamp, read-out: Blockierung der K^+-Durchlässigkeit der Membrane Ic50 (Mol)): 450 µM; Acetylcholin 1.10^-6 (Mol): Dauer, Min. (Uterus der Ratte; Konzentration 1.10^-4 Mol): 30±0.9 Min.; Acetylcholin 1.10^-6 (Mol): Dauer, Min. (Uterus der Ratte; Konzentration 1.10^-5 Mol): 30±0.5 Min.; Serotonin 1.10^-6 (Mol): Dauer, Min. (Uterus der Ratte; Konzentration 1.10^-4 Mol): 30±0.5 Min.
